Results as given in article PMC8457056, “Remodeling of the Fibrillation Pathway of α‐Synuclein by Interaction with Antimicrobial Peptide LL‐III” (Chemistry (Weinheim an Der Bergstrasse, Germany), 2021).

Tested on: α‐Syn
Assay: atomic force microscopy of α-Syn fibrils
Format: biochemical, human
Details: 20 μM α-Syn, dried on mica, 20 mM sodium acetate, pH 5.0, room temperature
Experimental: To verify inhibition of α‐Syn fibril formation upon addition of LL‐III, atomic force microscopy (AFM) experiments were carried out. To this end, a 20 μM solution of α‐Syn in the absence and in the presence of LL‐III was dried on a mica surface and AFM pictures were recorded. Under such conditions, liquid droplets could not be detected. In the absence of LL‐III, short fibril‐like structures were observed (Figure S3).
The lyophilized powders of the labeled and unlabeled LL-III peptide were purchased from GenScript, Germany.
The sequence of the LL-III peptide is NH2-VNWKKIL GKIIKVVK -CONH2. In th e labeled peptide, the fluorophore 6-carboxyfluorescein (FAM) was covalently attached to the N-terminus of the peptide. […]
The expression and purification of α-synuclein (α-Syn) was carried out as described before.[1,2] […] A single colony was picked and inoculated into 100 m l LB medium containing 150 μg/m l ampicillin and grown at 37°C with shaking at 250 rpm until the absorbance at 600 nm reached 0.8. […]
Phase-contrast light and fluorescence microscopy
The light and fluorescence microscopy experiments were performed using an Eclipse TE2000- U (Nikon Inc.) op-tical microscope with a Nikon Plan Fluor 20x objective (NA 0.45 WD 7.4) coupled to an TIS DMK 23UX249 camera. […] Fluorescence microscopy experiments were performed using 6-carboxyfluorescein- l abel ed LL- III (FAM-LL-III) exciting at 488 nm. […]

Substance: NH2-VNWKKIL GKIIKVVK -CONH2 [LL‐III]
- fibrils by AFM (200 μM LL-III): some fibrils of smaller size were still visible after drying
- fibrils by AFM (500 μM LL-III): fibrillar structures could no longer be detected
